Patent US11571430B2, “Platinum(II) ammine selenourea complexes and methods of treating cancer” (KING FAHD UNIVERSITY OF PETROLEUM AND MINERALS, priority 2020, dated 2023)
“Also recorded” adds a separate entry of the source.

Key:
Type in all cases: cell-based, human
[1] = tested on: HCT-116 (colon cancer cells); test: In vitro cytotoxicity, MTT assay, HCT-116; conditions: for IC50: 72 h incubation, HCT-116 colon cancer cells, read-out: IC50 values against HCT-116; for in vitro cytotoxicity in words, HCT-116: HCT-116, compared to cisplatin
Description: (§1) The solutions of Pt(II) complexes 1-5 and cisplatin (classical standard control) with 1.0 μM, 5.0 μM, 10.0 μM, 25.0 μM, 50.0 μM and 100.0 μM concentrations were prepared in DMEM. The cancer cells, HeLa (cervical cancer), A549 (Lung cancer) and HCT-116 (colon cancer) were seeded and maintained in quadruplicate in a 96-well tissue culture plate at 5×10^4 cells per well in 200 μL of the same medium. The cancer cells were incubated for 24 hours before the treatment. All compounds were dissolved in 50 vol % DMSO (50/50 v/v DMSO/DMEM). Therefore, DMSO was used as a negative control. The final DMSO concentration in each well, was less than 0.1%. The cancer cells were treated with the synthesized complexes (1-5) along with cisplatin and the resultant cultures were incubated for 72 h. The medium of wells was discarded and 100 μL DMEM containing MTT (3-(4,5-dimethylthiazol-2-yl)-2,5-diphenyltetrazolium bromide) (5 mg/mL) was added to the wells and incubated in a CO2 incubator at 37° C. in the dark for 4 hrs. After incubation, a purple colored formazan (artificial chromogenic dye, a product of the reduction of water insoluble tetrazolium salts e.g., MTT by dehydrogenases and reductases) in the cells is produced and appeared as dark crystals in the bottom of the wells. The medium of culture was discarded from each well carefully to avoid disruption of the monolayer. 100 μL of isopropanol was added in each well. The solution was thoroughly mixed in the wells to dissolve the formazan crystals which ultimately results into a purple solution. The absorbance of the 96-well plate was taken at 570 nm with Mithras 2LB943 against reagent blank.
(§2) The in vitro cytotoxicity of the prepared compounds (1-5) and cisplatin in DMSO was examined by the MTT assay against three human cancer cells namely, HeLa (cervical cancer cells), A549 (lung cancer cells) and HCT-116 (colon cancer cells). The survival of the cells as a function of concentration of compounds 1-5 (and compared to cisplatin) is shown in FIGS. 1A-1F, 2, 3A-3F, 4, 5A-5F, and 6. […] See Altoum A O S, Alhoshani A, Alhosaini K, et al (2017a) Synthesis, characterization and in vitro cytotoxicity of platinum(II) complexes of selenones [Pt(selenone)2Cl2]. J Coord Chem 70:1020-1031; Altoum A O S, Vančo J, Křikavová R, et al (2017b) Synthesis, structural characterization and cytotoxicity evaluation of platinum(II) complexes of heterocyclic selenones. Polyhedron 128:2-8; Ahmad S, Altoum A O S, Vančo J, et al (2018) Synthesis, crystal structure and anticancer activity of tetrakis(N-isopropylimidazolidine-2-selenone)platinum(II) chloride. J Mol Struct 1152:232-236; and Alhoshani A, Seliman A A A, Altoum A O, et al (2019) Synthesis, X-ray structure and in vitro cytotoxicity of trans-diammineplatinum(II) complexes of selenones, trans-[Pt(NH3)2(selenone)2](NO3)2. Polyhedron 158:234-240, each incorporated herein by reference in their entirety.

[2] = tested on: HeLa (cervical cancer cells); test: In vitro cytotoxicity, MTT assay, HeLa; conditions: for IC50: 72 h incubation, HeLa cervical cancer cells, read-out: IC50 values against HeLa; for in vitro cytotoxicity in words, HeLa: compared to cisplatin
Description: as §1, §2

A549 (lung cancer cells) = test: In vitro cytotoxicity, MTT assay, A549; conditions: for IC50: 72 h incubation, A549 lung cancer cells, read-out: IC50 values against A549; for in vitro cytotoxicity in words, A549: A549, compared to cisplatin
Description: as §1, §2

SMILES | IC50 [1] [µM] | IC50 [2] [µM] | IC50 (A549 (lung cancer cells)) [µM] | in vitro cytotoxicity in words, HCT-116 [1] | in vitro cytotoxicity in words, HeLa [2] | in vitro cytotoxicity in words, A549 (A549 (lung cancer cells))
N.N.[Cl][Pt][Cl] [Cisplatin, cis-diamminedichloridoplatinum(II), reference compound] | > 100 | 8.1 | 12.5 | – | – | –
N.N.NC(N)=[Se][Pt+2][Se]=C(N)N.O=[N+]([O-])[O-].O=[N+]([O-])[O-] [Complex 1, [Pt(NH3)2(Seu)2](NO3)2] | 5.4 | > 100 | > 100 | has activity against HCT-116 only; also recorded: excellent cytotoxic activity | no activity | no activity
C1CNC(=[Se][Pt+2][Se]=C2NCCCN2)NC1.N.N.O=[N+]([O-])[O-].O=[N+]([O-])[O-] [Complex 4, [Pt(NH3)2(DiazSe)2](NO3)2] | 7.7 | 3.7 | 6.74 | cytotoxicity higher than cisplatin; also recorded: excellent cytotoxic activity | cytotoxicity higher than cisplatin; also recorded: excellent cytotoxic activity | cytotoxicity higher than cisplatin; also recorded: excellent cytotoxic activity
C1CCNC(=[Se][Pt+2][Se]=C2NCCCCN2)NC1.N.N.O=[N+]([O-])[O-].O=[N+]([O-])[O-] [Complex 5, [Pt(NH3)2(DiapSe)2](NO3)2] | > 100 | > 100 | > 100 | ineffective | ineffective | ineffective
CNC(NC)=[Se][Pt+2][Se]=C(NC)NC.N.N.O=[N+]([O-])[O-].O=[N+]([O-])[O-] [Complex 2, [Pt(NH3)2(Me2Seu)2](NO3)2] | > 100 | 12.2 | 54 | almost inactive | cytotoxicity comparable to cisplatin | almost inactive
